Earlier results, collected in publication PMC7887855 (ACS Pharmacology & Translational Science, 2020).

Tested on: Mtb
Conditions: multiple daily IP injections, mice

In the case of `C=Cc1c2[n-]c(c1C)/C=c1\[n-]/c(c(C)c1C=C)=C\c1[n-]c(c(CCC(=O)O)c1C)C=c1[n-]/c(c(C)c1CCC(=O)O)=C\2.[Sn+4]` [SnPPIX, tin protoporphyrin IX], the “effect on mycobacterial load as monotherapy” value is listed as “significantly decrease mycobacterial load” and the “effect on treatment time in combination with conventional TB antibiotics” value is listed as “reduced treatment time by over one month”.
